Consider six compounds from ChEMBL document CHEMBL3991601, “The target landscape of clinical kinase drugs” (Science, 2017).

The target in one assay is T1, Ephrin type-B receptor 2 (Homo sapiens, UniProt P29323).
T1 sequence (P29323 whole entry): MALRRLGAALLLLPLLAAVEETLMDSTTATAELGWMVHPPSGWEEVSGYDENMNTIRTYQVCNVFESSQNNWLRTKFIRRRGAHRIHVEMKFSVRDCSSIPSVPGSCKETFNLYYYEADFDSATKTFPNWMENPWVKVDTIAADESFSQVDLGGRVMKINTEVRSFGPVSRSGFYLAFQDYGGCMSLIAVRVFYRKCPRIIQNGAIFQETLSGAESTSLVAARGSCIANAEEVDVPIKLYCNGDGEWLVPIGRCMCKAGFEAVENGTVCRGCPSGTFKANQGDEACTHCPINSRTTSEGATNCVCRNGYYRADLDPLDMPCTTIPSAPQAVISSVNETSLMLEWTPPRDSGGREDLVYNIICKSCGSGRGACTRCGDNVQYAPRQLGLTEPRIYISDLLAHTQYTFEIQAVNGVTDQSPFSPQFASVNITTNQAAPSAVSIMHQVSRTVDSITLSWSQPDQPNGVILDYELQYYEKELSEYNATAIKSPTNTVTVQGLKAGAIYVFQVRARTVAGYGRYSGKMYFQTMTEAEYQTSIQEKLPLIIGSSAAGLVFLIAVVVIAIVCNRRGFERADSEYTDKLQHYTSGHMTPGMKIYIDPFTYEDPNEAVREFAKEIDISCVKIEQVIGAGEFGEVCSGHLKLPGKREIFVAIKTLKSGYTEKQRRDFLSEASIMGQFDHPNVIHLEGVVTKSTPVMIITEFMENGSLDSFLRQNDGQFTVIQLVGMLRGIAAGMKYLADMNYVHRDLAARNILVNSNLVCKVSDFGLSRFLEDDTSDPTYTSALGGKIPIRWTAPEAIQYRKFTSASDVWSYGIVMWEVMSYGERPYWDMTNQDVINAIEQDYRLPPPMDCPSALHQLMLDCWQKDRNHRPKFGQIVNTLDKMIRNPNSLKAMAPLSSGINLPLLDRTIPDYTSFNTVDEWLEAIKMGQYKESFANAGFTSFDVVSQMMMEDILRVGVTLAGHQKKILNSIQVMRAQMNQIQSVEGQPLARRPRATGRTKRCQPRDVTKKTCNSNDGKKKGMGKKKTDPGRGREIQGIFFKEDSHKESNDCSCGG

Assay [1] addresses PAS domain-containing serine/threonine-protein kinase (Homo sapiens, UniProt Q96RG2).
Assay [2] concerns the target T2, Signal recognition particle receptor subunit alpha (Homo sapiens, UniProt P08240).
T2 sequence (P08240 whole entry): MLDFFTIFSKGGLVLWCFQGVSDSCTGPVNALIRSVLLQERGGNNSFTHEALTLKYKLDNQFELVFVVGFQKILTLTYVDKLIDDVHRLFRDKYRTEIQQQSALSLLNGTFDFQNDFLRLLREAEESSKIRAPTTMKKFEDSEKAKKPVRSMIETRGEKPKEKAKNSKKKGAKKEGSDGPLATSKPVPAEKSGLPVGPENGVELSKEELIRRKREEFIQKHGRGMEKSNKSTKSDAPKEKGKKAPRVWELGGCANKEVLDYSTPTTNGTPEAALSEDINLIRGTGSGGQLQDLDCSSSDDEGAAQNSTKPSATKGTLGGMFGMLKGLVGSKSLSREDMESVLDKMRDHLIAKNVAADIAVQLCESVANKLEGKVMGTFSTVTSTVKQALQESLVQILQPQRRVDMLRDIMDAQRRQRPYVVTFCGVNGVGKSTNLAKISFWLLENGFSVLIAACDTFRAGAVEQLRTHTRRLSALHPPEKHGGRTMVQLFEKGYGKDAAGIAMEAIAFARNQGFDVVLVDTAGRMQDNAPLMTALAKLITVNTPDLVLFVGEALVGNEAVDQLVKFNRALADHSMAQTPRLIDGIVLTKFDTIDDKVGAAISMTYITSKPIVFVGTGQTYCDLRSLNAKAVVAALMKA

Another assay addresses T3, Scaffold protein ILK (Homo sapiens, UniProt Q13418).
T3 sequence (Q13418 whole entry): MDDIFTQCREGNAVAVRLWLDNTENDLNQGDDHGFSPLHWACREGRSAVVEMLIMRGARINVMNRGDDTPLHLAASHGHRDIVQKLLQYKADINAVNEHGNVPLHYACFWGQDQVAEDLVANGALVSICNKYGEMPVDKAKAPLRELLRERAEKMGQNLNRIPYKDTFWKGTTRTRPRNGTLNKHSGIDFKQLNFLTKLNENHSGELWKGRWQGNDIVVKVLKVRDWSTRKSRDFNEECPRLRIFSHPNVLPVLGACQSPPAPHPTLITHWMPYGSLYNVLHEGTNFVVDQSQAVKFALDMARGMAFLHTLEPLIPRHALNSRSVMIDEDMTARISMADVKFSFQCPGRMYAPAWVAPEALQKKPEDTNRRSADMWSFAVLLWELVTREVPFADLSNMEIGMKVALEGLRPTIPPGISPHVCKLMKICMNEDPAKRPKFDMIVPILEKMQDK

In assay [3] the target is Hepatocyte growth factor receptor (Homo sapiens, UniProt P08581).
The target of assay [4] is Elongation factor Tu, mitochondrial (Homo sapiens, UniProt P49411).
Assay [5] concerns the target Platelet-derived growth factor receptor beta (Homo sapiens, UniProt P09619).
The target in assay [6] is Eukaryotic translation initiation factor 2-alpha kinase 1 (Homo sapiens, UniProt Q9BQI3).
In assay [7] the target is T4, Calcium/calmodulin-dependent protein kinase type IV (Homo sapiens, UniProt Q16566).
T4 sequence (Q16566 whole entry): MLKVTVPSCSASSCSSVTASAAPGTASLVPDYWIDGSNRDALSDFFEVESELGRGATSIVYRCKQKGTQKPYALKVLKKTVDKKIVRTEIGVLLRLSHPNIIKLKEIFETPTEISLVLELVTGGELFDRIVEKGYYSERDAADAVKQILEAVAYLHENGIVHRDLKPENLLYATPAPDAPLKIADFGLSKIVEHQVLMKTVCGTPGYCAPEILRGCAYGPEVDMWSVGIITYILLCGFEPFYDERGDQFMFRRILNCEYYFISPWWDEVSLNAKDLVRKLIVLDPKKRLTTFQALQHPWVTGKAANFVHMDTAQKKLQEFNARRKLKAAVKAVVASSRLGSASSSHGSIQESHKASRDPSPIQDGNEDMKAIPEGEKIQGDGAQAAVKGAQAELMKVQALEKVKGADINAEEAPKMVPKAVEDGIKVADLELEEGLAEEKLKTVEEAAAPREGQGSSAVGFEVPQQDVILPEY

Activity calls are given as the source filed them. For most assays here, no stated cut-off is given here; in the data, actives have a measured Kd and inactives only a lower limit.

Eukaryotic translation initiation factor 2-alpha kinase 1, sequence (Q9BQI3 whole entry): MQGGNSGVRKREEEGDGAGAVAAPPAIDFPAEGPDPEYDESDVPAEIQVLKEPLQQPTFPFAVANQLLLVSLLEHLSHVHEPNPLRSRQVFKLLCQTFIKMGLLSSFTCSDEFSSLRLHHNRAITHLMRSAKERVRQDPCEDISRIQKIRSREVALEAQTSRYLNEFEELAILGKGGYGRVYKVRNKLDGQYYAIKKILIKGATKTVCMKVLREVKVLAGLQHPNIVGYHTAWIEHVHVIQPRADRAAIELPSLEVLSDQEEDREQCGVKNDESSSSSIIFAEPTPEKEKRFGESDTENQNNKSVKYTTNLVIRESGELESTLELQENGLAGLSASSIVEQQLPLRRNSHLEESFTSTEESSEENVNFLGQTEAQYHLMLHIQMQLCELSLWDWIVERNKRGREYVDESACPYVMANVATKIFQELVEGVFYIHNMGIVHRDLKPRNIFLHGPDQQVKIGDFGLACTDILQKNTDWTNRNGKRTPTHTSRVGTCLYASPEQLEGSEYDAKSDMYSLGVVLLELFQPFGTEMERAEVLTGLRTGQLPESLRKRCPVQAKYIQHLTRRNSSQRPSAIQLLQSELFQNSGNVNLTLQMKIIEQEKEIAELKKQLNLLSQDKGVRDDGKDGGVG
PAS domain-containing serine/threonine-protein kinase, sequence (Q96RG2 whole entry, the tested form may be a part): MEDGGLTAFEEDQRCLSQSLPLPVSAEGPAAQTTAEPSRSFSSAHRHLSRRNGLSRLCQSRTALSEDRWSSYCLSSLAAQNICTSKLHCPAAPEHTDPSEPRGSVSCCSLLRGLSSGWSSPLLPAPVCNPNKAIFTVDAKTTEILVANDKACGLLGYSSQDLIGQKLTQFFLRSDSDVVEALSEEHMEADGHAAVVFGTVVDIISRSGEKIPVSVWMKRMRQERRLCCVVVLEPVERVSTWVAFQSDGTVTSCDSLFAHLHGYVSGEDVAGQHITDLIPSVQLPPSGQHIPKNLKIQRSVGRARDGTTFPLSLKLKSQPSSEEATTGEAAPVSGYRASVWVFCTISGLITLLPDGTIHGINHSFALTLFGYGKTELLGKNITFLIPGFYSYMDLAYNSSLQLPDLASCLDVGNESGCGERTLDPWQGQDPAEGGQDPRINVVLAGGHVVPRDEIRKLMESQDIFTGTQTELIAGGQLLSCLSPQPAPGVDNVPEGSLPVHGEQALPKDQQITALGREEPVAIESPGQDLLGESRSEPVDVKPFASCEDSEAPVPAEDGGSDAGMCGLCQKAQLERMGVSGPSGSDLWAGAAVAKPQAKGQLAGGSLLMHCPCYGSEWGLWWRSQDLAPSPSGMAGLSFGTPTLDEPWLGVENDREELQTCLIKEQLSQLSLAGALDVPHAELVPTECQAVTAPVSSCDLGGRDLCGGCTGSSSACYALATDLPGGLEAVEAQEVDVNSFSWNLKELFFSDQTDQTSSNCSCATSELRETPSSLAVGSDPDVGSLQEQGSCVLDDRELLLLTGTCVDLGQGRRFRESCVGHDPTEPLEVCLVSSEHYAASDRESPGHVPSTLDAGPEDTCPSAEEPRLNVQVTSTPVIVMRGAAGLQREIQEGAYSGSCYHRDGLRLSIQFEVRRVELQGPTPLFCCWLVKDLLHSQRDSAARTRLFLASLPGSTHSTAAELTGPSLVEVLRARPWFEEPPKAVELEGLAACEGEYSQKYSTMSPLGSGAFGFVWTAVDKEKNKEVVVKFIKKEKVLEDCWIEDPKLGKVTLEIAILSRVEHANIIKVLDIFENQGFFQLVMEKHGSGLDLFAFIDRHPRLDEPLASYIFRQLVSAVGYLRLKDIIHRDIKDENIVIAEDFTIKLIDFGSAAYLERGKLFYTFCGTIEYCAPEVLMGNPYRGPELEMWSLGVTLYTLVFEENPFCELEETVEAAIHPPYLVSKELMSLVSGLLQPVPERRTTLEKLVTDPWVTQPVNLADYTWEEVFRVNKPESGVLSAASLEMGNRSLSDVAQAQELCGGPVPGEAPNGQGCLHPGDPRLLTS
Platelet-derived growth factor receptor beta, sequence (P09619 whole entry): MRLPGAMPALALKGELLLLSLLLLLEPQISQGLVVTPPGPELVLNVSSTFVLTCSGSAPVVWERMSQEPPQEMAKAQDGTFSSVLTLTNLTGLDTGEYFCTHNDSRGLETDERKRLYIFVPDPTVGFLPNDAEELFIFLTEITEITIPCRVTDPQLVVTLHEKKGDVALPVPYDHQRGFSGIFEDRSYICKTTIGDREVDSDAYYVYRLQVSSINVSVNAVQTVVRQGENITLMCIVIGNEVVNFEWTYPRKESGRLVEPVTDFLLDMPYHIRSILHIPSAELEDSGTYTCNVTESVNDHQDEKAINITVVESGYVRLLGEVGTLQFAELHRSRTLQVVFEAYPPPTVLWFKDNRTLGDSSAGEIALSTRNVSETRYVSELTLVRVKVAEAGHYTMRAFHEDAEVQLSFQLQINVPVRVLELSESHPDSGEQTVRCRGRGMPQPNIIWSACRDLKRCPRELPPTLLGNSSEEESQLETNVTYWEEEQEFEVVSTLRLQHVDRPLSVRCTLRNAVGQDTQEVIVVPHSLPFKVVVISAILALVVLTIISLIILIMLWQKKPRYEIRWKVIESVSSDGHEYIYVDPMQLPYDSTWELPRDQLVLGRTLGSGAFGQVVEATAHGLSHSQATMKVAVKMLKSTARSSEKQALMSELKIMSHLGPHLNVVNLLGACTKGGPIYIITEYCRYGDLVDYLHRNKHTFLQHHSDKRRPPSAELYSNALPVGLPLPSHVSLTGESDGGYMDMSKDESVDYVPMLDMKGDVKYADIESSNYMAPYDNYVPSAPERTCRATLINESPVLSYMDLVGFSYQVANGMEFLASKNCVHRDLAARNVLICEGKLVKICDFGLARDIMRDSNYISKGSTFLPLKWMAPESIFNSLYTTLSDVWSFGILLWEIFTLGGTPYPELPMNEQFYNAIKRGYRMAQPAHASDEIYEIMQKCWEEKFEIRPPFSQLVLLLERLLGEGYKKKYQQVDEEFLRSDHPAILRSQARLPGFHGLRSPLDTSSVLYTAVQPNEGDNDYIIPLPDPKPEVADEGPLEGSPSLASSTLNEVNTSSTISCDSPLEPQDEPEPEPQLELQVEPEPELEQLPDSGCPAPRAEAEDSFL
Hepatocyte growth factor receptor, sequence (P08581 whole entry): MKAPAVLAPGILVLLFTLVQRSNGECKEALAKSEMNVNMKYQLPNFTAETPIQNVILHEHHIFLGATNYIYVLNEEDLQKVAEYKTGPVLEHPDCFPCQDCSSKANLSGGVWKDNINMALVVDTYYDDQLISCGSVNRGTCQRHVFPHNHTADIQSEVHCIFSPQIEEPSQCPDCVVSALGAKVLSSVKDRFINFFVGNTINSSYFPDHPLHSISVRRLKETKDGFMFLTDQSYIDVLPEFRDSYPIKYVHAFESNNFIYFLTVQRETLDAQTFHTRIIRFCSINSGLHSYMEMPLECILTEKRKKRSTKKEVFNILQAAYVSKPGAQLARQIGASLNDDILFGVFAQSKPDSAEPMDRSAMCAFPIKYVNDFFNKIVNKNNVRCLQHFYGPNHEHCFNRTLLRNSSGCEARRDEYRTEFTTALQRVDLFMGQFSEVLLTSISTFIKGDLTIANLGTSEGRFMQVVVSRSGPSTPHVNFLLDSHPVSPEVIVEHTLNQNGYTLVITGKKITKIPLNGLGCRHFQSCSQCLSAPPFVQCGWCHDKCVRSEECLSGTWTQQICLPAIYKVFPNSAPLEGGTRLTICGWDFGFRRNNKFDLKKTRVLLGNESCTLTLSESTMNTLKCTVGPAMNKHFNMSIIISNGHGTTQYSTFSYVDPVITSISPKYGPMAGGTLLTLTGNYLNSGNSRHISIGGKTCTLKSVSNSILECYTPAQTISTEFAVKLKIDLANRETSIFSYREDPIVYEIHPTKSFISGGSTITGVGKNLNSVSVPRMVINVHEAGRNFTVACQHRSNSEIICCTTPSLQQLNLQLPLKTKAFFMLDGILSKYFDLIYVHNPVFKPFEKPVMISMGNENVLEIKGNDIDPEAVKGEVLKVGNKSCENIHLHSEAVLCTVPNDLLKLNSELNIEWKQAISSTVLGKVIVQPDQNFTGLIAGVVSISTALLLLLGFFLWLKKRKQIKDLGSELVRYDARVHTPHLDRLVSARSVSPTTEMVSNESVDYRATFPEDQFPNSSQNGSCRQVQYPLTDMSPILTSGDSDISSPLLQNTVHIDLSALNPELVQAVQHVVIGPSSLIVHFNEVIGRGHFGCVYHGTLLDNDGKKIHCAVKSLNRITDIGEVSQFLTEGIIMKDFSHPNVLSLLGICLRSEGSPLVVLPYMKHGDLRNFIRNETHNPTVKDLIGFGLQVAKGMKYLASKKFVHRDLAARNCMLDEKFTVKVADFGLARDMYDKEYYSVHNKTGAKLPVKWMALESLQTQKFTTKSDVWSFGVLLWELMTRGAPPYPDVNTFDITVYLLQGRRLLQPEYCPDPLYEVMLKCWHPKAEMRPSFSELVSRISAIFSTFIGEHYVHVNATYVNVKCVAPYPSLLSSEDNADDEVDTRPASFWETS

The term Kd denotes the constant that tells how readily two partners part at equilibrium. As for `COc1cc2c(Nc3ccc(Cl)c(Cl)c3F)ncnc2cc1OC[C@@H]1C[C@@H]2CN(C)C[C@@H]2C1` [TESEVATINIB], the Kd on Ephrin type-B receptor 2 is 0.448 µM (active); in assay [1] it was > 30 µM (inactive); in assay [2] it was > 30 µM (inactive); at Scaffold protein ILK, > 30 µM (inactive); in [3], > 30 µM (inactive); in assay [4] it was > 30 µM (inactive). For the same compound, the Kd in assay [5], in assay [6] and in assay [7] was > 30 µM (inactive) throughout.
Consider `O=C(Cc1ccc(-c2ccc(OCCN3CCOCC3)cc2)cn1)NCc1ccccc1` [TIRBANIBULIN], for which the Kd (at Ephrin type-B receptor 2; in assay [1]; in assay [2]; on Scaffold protein ILK; in assay [3]; in [4]) was > 30 µM (inactive) each time. Besides, the Kd in assay [5], in assay [6] and in assay [7] was > 30 µM (inactive) throughout.
With `O=C1NC(=O)[C@@H](c2cn3c4c(cccc24)CCC3)[C@@H]1c1c[nH]c2ccccc12` [TIVANTINIB], the Kd at Ephrin type-B receptor 2 was > 30 µM (inactive); in assay [1] it was > 30 µM (inactive); in assay [2], > 30 µM (inactive); at Scaffold protein ILK, > 30 µM (inactive); in [3], 0.511 µM (active); in assay [4], > 30 µM (inactive). For the same compound, the Kd in [5], in assay [6] and in assay [7] was > 30 µM (inactive) in each case.
Take `Cc1cc(Nc2ncnc3ccc(NC4=NC(C)(C)CO4)cc23)ccc1Oc1ccn2ncnc2c1` [TUCATINIB]: the Kd (at Ephrin type-B receptor 2; in [1]; in assay [2]; at Scaffold protein ILK; in assay [3]; in assay [4]) was > 30 µM (inactive) in each case. In addition, the Kd in assay [5], in assay [6] and in [7] was > 30 µM (inactive) in each case.
Take `C[C@@H](N)c1ccc(C(=O)Nc2ccnc3[nH]ccc23)cc1` [Y-39983]: the Kd (on Ephrin type-B receptor 2; in assay [1]; in assay [2]; at Scaffold protein ILK; in [3]; in assay [4]) was > 30 µM (inactive) in each case. Further, the Kd in assay [5], in assay [6] and in assay [7] was > 30 µM (inactive) throughout.
Regarding `CN1C/C=C/CCOc2cccc(c2)-c2ccnc(n2)Nc2cccc(c2)C1` [ZOTIRACICLIB], the Kd (on Ephrin type-B receptor 2; in [1]; in [2]; at Scaffold protein ILK; in [3]; in assay [4]) was > 30 µM (inactive) each time. The Kd in assay [5], in assay [6] and in [7] was > 30 µM (inactive) throughout.
